According to US11219656B2 (Industry-Academic Cooperation Foundation, Yonsei University, priority 2011, dated 2022):
Values belong to the compound of their own block, whether it stands above or below them.

What was measured:
calvaria = experiment: Calvaria thickness measurement, gallocatechin and methyl vanillate treatment; assay type: cell-based; details: calvaria of 4-day-old postnatal mice under differentiation, one week (FIG. 7)
Protocol: While inducing the differentiation in the calvaria of 4-day-old postnatal mice supplied by Orient Bio. 2 nM of gallocatechin and 0.2 nM of methyl vanillate were treated for one week.

[1] = test system: ALP (alkaline phosphatase); experiment: ALP activity analysis; assay type: cell-based; details: within the concentration gradient (FIG. 9 and FIG. 10)
[2] = test system: ALP (alkaline phosphatase) in primary osteoblast (POB) cells; experiment: ALP staining in differentiated primary osteoblast cells; assay type: cell-based; details: 20 μM, differentiated and stained for 9 days (FIG. 8)
Protocol: In addition, in order to confirm the activity of ALP (alkaline phosphatase) showing the activation of bones, 20 μM of gallocatechin was treated with primary osteoblast (POB) cells, and allowed to differentiate and stain for 9 days.

SD-based rat = details: single oral dose of 1 g/kg
Protocol: 6-week old specific pathogen-free (SPF) SD-based rat supplied from the DAEHAN Experiment Supply Center was used and the acute toxicity experiments were conducted as follows.
The animal mortality, clinical symptoms, and change in the body weight were observed and then hematologic testing and blood biochemical tests were conducted.

activity of ALP [1]: increased
SMILES: COC(=O)c1ccc(O)c(OC)c1 [methyl vanillate]
thickness of the calvaria (calvaria; 0.2 nM methyl vanillate): increased

SMILES: Oc1cc(O)c2c(c1)O[C@H](c1cc(O)c(O)c(O)c1)[C@@H](O)C2 [gallocatechin]
thickness of the calvaria (calvaria; 2 nM gallocatechin): increased
expression of ALP (staining) [2]: increased
activity of ALP [1]: increased
specific clinical symptoms and died animals (SD-based rat): not found
toxic changes in body weight, blood tests, blood biochemical tests and autopsy findings (SD-based rat): not observed
